# Where two headings read alike, the source gives them in different places.
# What was measured:
# [1] = cited from earlier work; for Kp,uu,brain Human: *3 ref Summerfield et al. (25)
# [2] = biological target: T1, BCRP (Homo sapiens, UniProt Q9UNQ0); assay: Transcellular transport across MDCK-BCRP cell monolayers (efflux ratio); conditions: dog, pH 7.4
# T1 sequence (Q9UNQ0 1-655): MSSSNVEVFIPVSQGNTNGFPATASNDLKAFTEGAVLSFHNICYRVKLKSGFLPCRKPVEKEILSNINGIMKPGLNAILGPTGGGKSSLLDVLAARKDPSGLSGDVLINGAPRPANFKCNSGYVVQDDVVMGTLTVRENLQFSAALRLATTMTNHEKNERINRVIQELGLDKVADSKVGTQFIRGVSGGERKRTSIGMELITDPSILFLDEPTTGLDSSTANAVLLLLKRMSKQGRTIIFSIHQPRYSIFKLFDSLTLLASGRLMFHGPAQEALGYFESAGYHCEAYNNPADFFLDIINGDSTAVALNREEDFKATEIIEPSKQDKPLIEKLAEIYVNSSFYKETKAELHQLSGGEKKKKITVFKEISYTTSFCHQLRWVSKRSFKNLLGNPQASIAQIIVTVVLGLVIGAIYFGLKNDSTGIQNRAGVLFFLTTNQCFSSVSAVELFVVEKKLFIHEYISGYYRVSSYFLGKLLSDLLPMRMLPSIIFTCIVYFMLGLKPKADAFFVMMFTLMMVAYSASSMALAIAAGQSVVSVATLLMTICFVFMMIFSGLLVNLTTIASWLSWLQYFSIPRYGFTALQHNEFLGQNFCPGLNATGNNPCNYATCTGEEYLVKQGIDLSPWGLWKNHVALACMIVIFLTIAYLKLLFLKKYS
# Method: (§1) To the compounds available internally, in vitro efflux ratios for MDR1 and BCRP were determined by the following procedure (Supplemental Table 2). Test compound stock solutions in dimethyl sulfoxide (DMSO) were diluted in transport buffer (Hanks’ balanced salt solution (HBSS) with 10 mM HEPES, pH 7.4) to a concentration of 1 μM (DMSO < 1%) and applied to the apical or basolateral side of a cell monolayer derived from Madin-Darby canine kidney (MDCK)-MDR1 and MDCK-BCRP cells. Permeation of the test compounds from apical to basolateral (A to B) direction or B to A direction was measured in duplicate. The plate was incubated for 1 h in a CO2 incubator at 37±1°C with 5% CO2 at saturated humidity without shaking. In addition, the efflux ratio of each compound was also determined. Test and reference compounds were quantified by LC-MS/MS analysis based on the peak area ratio of analyte/internal standard.
# (§2) The apparent permeability coefficient Papp (cm/s) was calculated by using Eq. 1: 1 Papp=dCr/dt×Vr/A×C0 where dCr/dt is the cumulative concentration of the compound in the receiver chamber as a function of time (μM/s); Vr is the volume of the solution in the receiver chamber (0.075 mL on the apical side, 0.25 mL on the basolateral side); A is the surface area for transport, i.e., 0.0804 cm^2 for the area of the monolayer; and C0 is the initial concentration (μM) in the donor chamber.
# (§3) The efflux ratio was calculated using Eq. 2: 2 Efflux ratio=Papp,BtoA/Papp,AtoB
# [3] = cited from earlier work
# [4] = biological target: MDR1 (Homo sapiens, UniProt P08183); assay: in vitro; conditions: dog, MDCK-MDR1, pH 7.4
# MDR1, sequence (P08183 whole entry): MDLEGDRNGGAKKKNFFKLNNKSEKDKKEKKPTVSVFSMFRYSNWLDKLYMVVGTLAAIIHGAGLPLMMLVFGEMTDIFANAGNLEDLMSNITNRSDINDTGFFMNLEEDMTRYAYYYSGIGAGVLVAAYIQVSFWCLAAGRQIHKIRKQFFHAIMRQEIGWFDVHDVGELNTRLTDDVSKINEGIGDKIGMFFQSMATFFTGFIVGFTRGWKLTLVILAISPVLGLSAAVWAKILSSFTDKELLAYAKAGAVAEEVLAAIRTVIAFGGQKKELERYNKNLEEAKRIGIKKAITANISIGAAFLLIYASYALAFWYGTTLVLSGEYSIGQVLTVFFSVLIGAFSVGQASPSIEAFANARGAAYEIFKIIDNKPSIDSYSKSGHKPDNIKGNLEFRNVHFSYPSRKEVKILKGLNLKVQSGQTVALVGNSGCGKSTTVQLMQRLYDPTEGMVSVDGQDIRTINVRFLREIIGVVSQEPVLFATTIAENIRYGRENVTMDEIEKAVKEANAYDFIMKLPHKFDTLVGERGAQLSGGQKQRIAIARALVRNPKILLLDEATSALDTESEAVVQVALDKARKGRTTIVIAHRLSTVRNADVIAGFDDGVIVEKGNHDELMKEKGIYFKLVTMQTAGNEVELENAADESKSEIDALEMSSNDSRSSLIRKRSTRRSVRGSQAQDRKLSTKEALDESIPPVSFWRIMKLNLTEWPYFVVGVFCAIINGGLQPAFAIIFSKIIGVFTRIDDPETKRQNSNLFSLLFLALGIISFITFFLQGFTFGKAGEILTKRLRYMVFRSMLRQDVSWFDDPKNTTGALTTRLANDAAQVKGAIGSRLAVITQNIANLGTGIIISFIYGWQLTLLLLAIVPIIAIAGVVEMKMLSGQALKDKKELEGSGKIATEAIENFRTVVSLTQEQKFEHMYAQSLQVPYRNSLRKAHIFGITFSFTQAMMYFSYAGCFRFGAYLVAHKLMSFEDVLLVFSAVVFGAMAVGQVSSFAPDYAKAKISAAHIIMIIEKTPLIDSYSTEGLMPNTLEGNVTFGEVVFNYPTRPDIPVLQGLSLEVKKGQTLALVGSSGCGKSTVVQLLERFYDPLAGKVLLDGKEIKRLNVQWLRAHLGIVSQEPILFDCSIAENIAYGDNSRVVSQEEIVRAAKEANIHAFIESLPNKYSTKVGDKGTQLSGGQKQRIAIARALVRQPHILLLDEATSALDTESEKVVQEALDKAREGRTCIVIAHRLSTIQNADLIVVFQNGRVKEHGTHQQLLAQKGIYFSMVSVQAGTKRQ
# Method: as §1, §2, §3
# [5] = monkey; *9 ref Nagaya et al. (19); cited from earlier work
# [6] = in vivo; conditions: for Kp uu at 6 h: cynomolgus monkey, in vivo
# Method: Monkey experiments were conducted internally or at the Drug Safety Research Laboratories in Shin Nippon Biomedical Laboratories via consignment to Axcelead Drug Discovery Partners. […] Detailed dosage regimen for each compound is summarized in Supplemental Table 3. […] Each cassette was assigned to a separate group of monkeys. The vehicle was saline or a mixture of dimethylacetamide and 1,3-butanediol (1:1, v/v). At the end of the 6-h infusion or 1 h after intravenous bolus administration, the monkeys were anesthetized, and whole blood, CSF, and whole brain were collected. Blood was collected using the anticoagulant, heparin sodium, and immediately centrifuged; the plasma was transferred to polypropylene tubes. Then, ketamine hydrochloride (50 mg/mL; 0.2 mL/kg; 10 mg/kg) was intramuscularly administered. CSF was collected after lumbar puncture using a spinal needle (22–25G) and a syringe pre-wetted with 10% CHAPS solution to prevent adsorption of compounds to all the equipment during pretreatment. CSF samples were immediately centrifuged, and the supernatant layers were transferred to polypropylene tubes. […] After collecting the cerebellum, hippocampus, and cerebral cortex from the whole brain, these were washed with cold saline, weighed, and homogenized immediately in 4 volumes of ice-cold 100 mmol/L sodium phosphate buffer. All samples were stored at –80°C until analysis by LC-MS/MS. Each sample (50 μL) was mixed with the working solution (the mixture of dimethyl sulfoxide and acetonitrile (2:8, v/v)), and protein was precipitated by the addition of 150 μL acetonitrile containing the internal standards (5 ng/mL alprenolol and diclofenac). After centrifugation at 5,250 rpm and 4°C for 5 min, the supernatant (150 μL) was transferred to a polypropylene 96-well plate (Corning; Corning, NY, USA) and completely evaporated under a gentle stream of N2. The residue was reconstituted in dilution solution (mobile phase A/B (7:3, v/v)), and the supernatant was analyzed by LC-MS/MS.
# Each sample (50 μL) was mixed with the working solution (the mixture of dimethyl sulfoxide and acetonitrile (2:8, v/v)), and the protein was precipitated by adding 150 μL acetonitrile containing internal standards (5 ng/mL alprenolol and diclofenac). After centrifugation at 5250 rpm and 4°C for 5 min, the supernatant (150 μL) was transferred to a polypropylene 96-well plate (Corning) and completely evaporated under a gentle stream of N2. The residue was reconstituted in mobile phase A/B (7:3, v/v)), and the supernatant was analyzed by LC-MS/MS. API5000 and QTRAP5500 (AB SCIEX, Framingham, MA, USA) equipped with Ultra-Fast Liquid Chromatography (Shimadzu, Kyoto, Japan) were used for determination of drug concentrations. Reversed-phase chromatography was performed using Shim-pack XR ODS (2.2 μm, 2.0×30 mm). Mobile phase A consisted of 10 mM ammonium formate with 0.2% formic acid, and mobile phase B contained acetonitrile with 0.2% formic acid. […] The mass spectrometer was operated in the positive ionization mode with multiple reaction monitoring (MRM). The MRM parameters (Q1 ion, Q3 ion, DP, EP, CE, and CXP) for monitoring the compounds are shown in Supplemental Table 4. Data acquisition and processing were performed using Analyst 1.6.2 (AB SCIEX, Framingham, MA, USA).
# (§4) To perform correlation analyses between the observed Kp,uu,brain and Kp,uu,CSF, and the model-based prediction of Kp,uu,brain and Kp,uu,CSF, data from literature information were integrated into the internally obtained data for these assessments (Supplemental Table 2) ([17],[22]–[24],[27]–[33]). When only the total concentrations in plasma, CSF, and brain were available, the total concentration ratio in plasma to CSF or brain (Kp,CSF or Kp,brain, respectively) was estimated, followed by calculation of Kp,uu,CSF or Kp,uu,brain based on Eqs.
# [7] = in vivo; conditions: for Kp uu: rat, in vivo
# Method: The CSF samples collected from cisterna magna in rats were stored at –80°C until analysis by liquid chromatography-tandem mass spectrometry (LC-MS/MS). Before performing the LC-MS/MS analysis, these samples were thawed on ice and mixed with three volumes of acetonitrile. The acetonitrile mixtures were vortexed and centrifuged, and the supernatant was collected. After dilution with mobile phase A (a mixture of 10 mM ammonium formate and formic acid at 100:0.2 (v/v)), the supernatant was injected into the LC-MS/MS system.
# as §4
"efflux ratio at 1 h, 1 μM [2]","efflux ratio at 1 h, 1 μM [4]",Structure (SMILES),"Kp,uu,CSF Human ([1]; *4 ref Friden et al. (21))","Kp,uu,CSF Rat ([3]; *4 ref Friden et al. (21))",other results
–,–,Nc1nnc(-c2cccc(Cl)c2Cl)c(N)n1 [Lamotrigine],1.1,0.86,"Kp,uu,brain Human [1]: 2.80; Kp,uu,brain Rat ([3]; *3 ref Summerfield et al. (25)): 1.40; Kp,uu,CSF Monkey [5]: 0.875; Kp,uu,brain Monkey [5]: 0.678"
18,52,COc1cc2nc(N3CCN(C(=O)c4ccco4)CC3)nc(N)c2cc1OC [Prazosin],–,–,"Kp uu at 6 h ([6]; Kp,uu,CSF Monkey): 0.289; Kp uu at 6 h ([6]; Kp,uu,brain Monkey): 0.253"
12,3.2,COc1ccc2c(c1)c(CC(=O)O)c(C)n2C(=O)c1ccc(Cl)cc1 [Indomethacin],0.27,0.17,–
0.7,25,CC1(C)O[C@@H]2[C@@H](CO[C@@]3(COS(N)(=O)=O)OC(C)(C)O[C@@H]23)O1 [Topiramate],1,0.63,"Kp,uu,brain Rat ([3]; *4 ref Friden et al. (21)): 0.330"
1.2,1.4,CN(Cc1cnc2nc(N)nc(N)c2n1)c1ccc(C(=O)N[C@@H](CCC(=O)O)C(=O)O)cc1 [Methotrexate],0.062,0.007,–
–,–,O=c1c(-c2ccc(O)cc2)coc2cc(O)cc(O)c12 [Genistein],–,–,"Kp,uu,CSF Rat ([7]; *1 data internally obtained): 1.29; Kp,uu,brain Rat ([7]; *1 data internally obtained): 0.0238; Kp,uu,CSF Monkey ([6]; monkey, lumbar CSF, *1 data internally obtained): 0.0369; Kp,uu,brain Monkey ([6]; monkey, *1 data internally obtained): 0.0128; Kp,uu,CSF Rat ([3]; *7 ref Kodaira et al. (20)): 0.589; Kp,uu,brain Rat ([3]; *7 ref Kodaira et al. (20)): 0.181"
5.8,19.8,C#Cc1cccc(Nc2ncnc3cc(OCCOC)c(OCCOC)cc23)c1 [Erlotinib],–,–,"Kp,uu,CSF Human ([1]; *2 ref Post et al. (24)): 0.428; Kp uu ([7]; Kp,uu,CSF Rat): 0.409; Kp uu ([7]; Kp,uu,brain Rat): 0.061"
1.2,0.5,CN[C@H]1CC[C@@H](c2ccc(Cl)c(Cl)c2)c2ccccc21 [Sertraline],–,–,–

Structure (SMILES),"efflux ratio at 1 h, 1 μM [2]","efflux ratio at 1 h, 1 μM [4]","Kp,uu,CSF Human ([1]; *4 ref Friden et al. (21))","Kp,uu,CSF Rat ([3]; *4 ref Friden et al. (21))",other results
COc1ccc(C(CN(C)C)C2(O)CCCCC2)cc1 (stereo not shown) [Venlafaxine],0.7,7.6,–,–,"Kp,uu,brain Human [1]: 0.86; Kp,uu,brain Rat ([3]; *3 ref Summerfield et al. (25)): 1.074"

# Source: publication PMC8175309, “Translational CNS Steady-State Drug Disposition Model in Rats, Monkeys, and Humans for Quantitative Prediction of Brain-to-Plasma and Cerebrospinal Fluid-to-Plasma Unbound Concentration Ratios” (The AAPS Journal, 2021)
